Laboratory results from ChEMBL document CHEMBL5365429, “Discovery of 5-sulfonyltetrazoles as neuroblastoma differentiation agents” (Bioorg Med Chem Lett, 2023).
Calls of active or inactive are those of the source. No cut-off for these calls is given here.

Tests used:
Format in all cases: functional, cell-based
BE(2)-C [1] = experiment: Induction of neuron differentiation in human BE2C cells assessed as neurite outgrowth by measuring neurite length at 25 uM measured after 4 days; details: time 4.0 day
BE(2)-C [2] = experiment: Induction of neuron differentiation in human BE2C cells assessed as neurite outgrowth by measuring neurite length at 25 uM by imaging analysis
BE(2)-C [3] = experiment: Antiproliferative activity against human BE2C cells assessed as reduction in cell viability at 25 uM
BE(2)-C [4] = experiment: Antiproliferative activity against human BE2C cells assessed as reduction in cell viability; details: dose 50-200 µM
BE(2)-C [5] = experiment: Induction of neuron differentiation in human BE2C cells assessed as neurite outgrowth by measuring neurite length; details: dose 50-200 µM
BE(2)-C [6] = experiment: Induction of neuron differentiation in human BE2C cells assessed as neurite outgrowth by measuring neurite length at 25 uM
BE(2)-C [7] = experiment: Antiproliferative activity against human BE2C cells assessed as reduction in cell viability at 25 uM measured after 4 days; details: time 4.0 day

SMILES	Activity (BE(2)-C [1])	other results
Cn1nnnc1SCC1CC1	inactive	
Cn1nnnc1S(=O)(=O)CC1CCC1	Active	
CSc1nnnn1C	inactive	
CCCSc1nnnn1C	inactive	
Cn1nnnc1SCC#C[Si](C)(C)C	inactive	
CCSc1nnnn1C	inactive	
Cn1nnnc1SCC1CCC1	inactive	
CCS(=O)(=O)c1nnnn1C		Activity (BE(2)-C [2]): Active; Activity (BE(2)-C [3]): Active; Activity (BE(2)-C [4]): Dose-Dependent Effect; Activity (BE(2)-C [5]): Dose-Dependent Effect; Activity (BE(2)-C [6]): Active
C=CCS(=O)(=O)c1nnnn1C	Active	Activity (BE(2)-C [7]): Active
Cn1nnnc1S(C)(=O)=O	Active	
CCCS(=O)(=O)c1nnnn1C	Active	
C=CCSc1nnnn1C	inactive	
